{
  "source": "ChEMBL document CHEMBL5620415",
  "about": "“Design, synthesis and anti-hepatic fibrosis activity of novel diphenyl vitamin D receptor agonists” (Eur J Med Chem, 2023)",
  "key": {"[1]": {"assay": "Toxicity in CCl4-induced hepatic fibrosis C57BL/6 mouse model assessed as serum hypercalcemia at 100 ug/kg, po five times a week for 2 weeks by calcium assay kit", "type": "organism-based", "settings": "in vivo, 0.1 mg/kg, 336 h, dose 100 µg/kg"}, "Mus musculus [2]": {"system": "Mus musculus", "assay": "Anti-fibrotic effect in CCl4-induced hepatic fibrosis C57BL/6 mouse model assessed as reduction the lesions at 500 ug/kg, po five times a week for 2 weeks by Masson's Trichrome staining based assay", "type": "functional, organism-based", "settings": "dose 500.0 µg/kg"}, "LX-2 [3]": {"system": "LX-2", "assay": "Inhibition of TGF-beta1 induced human LX-2 cell activation assessed as inhibition of alpha-SMA expression at 0.5 uM by Western blot analysis relative to control", "type": "functional, cell-based"}, "Mus musculus [4]": {"system": "Mus musculus", "assay": "Anti-fibrotic effect in CCl4-induced hepatic fibrosis C57BL/6 mouse model assessed as inhibition of serum AST level at 500 ug/kg, po five times a week for 2 weeks", "type": "functional, organism-based", "settings": "dose 500.0 µg/kg"}, "Mus musculus [5]": {"system": "Mus musculus", "assay": "Anti-fibrotic effect in CCl4-induced hepatic fibrosis C57BL/6 mouse model assessed as reduction the lesions at 500 ug/kg, po five times a week for 2 weeks by Hematoxylin-Eosin (H&E) staining based assay", "type": "functional, organism-based", "settings": "dose 500.0 µg/kg"}, "Mus musculus [6]": {"system": "Mus musculus", "assay": "Anti-fibrotic effect in improving CCl4-induced hepatic fibrosis C57BL/6 mouse model assessed as uniform liver parenchyma at 500 ug/kg, po five times a week for 2 weeks by qualitative ultrasound imaging analysis", "type": "functional, organism-based", "settings": "dose 500.0 µg/kg"}, "Mus musculus [7]": {"system": "Mus musculus", "assay": "Anti-fibrotic effect in CCl4-induced hepatic fibrosis C57BL/6 mouse model assessed as reduction in hepatic fibrosis lesions at 500 ug/kg, po five times a week for 2 weeks by Hematoxylin-Eosin (H&E) staining based assay", "type": "functional, organism-based", "settings": "dose 500.0 µg/kg"}, "Mus musculus [8]": {"system": "Mus musculus", "assay": "Anti-fibrotic effect in CCl4-induced hepatic fibrosis C57BL/6 mouse model assessed as decrease in inflammatory cell infiltration at 500 ug/kg, po five times a week for 2 weeks by Hematoxylin-Eosin (H&E) staining based assay", "type": "functional, organism-based", "settings": "dose 500.0 µg/kg"}, "Mus musculus [9]": {"system": "Mus musculus", "assay": "Anti-fibrotic effect in CCl4-induced hepatic fibrosis C57BL/6 mouse model assessed as reduction in hepatic fibrosis lesions at 500 ug/kg, po five times a week for 2 weeks by Masson's Trichrome staining based assay", "type": "functional, organism-based", "settings": "dose 500.0 µg/kg"}, "Mus musculus [10]": {"system": "Mus musculus", "assay": "Anti-fibrotic effect in CCl4-induced hepatic fibrosis C57BL/6 mouse model assessed as decrease in inflammatory cell infiltration at 500 ug/kg, po five times a week for 2 weeks by Masson's Trichrome staining based assay", "type": "functional, organism-based", "settings": "dose 500.0 µg/kg"}, "[11]": {"target": "T1, Vitamin D3 receptor (Homo sapiens) (UniProt P11473)", "T1 sequence (whole entry)": "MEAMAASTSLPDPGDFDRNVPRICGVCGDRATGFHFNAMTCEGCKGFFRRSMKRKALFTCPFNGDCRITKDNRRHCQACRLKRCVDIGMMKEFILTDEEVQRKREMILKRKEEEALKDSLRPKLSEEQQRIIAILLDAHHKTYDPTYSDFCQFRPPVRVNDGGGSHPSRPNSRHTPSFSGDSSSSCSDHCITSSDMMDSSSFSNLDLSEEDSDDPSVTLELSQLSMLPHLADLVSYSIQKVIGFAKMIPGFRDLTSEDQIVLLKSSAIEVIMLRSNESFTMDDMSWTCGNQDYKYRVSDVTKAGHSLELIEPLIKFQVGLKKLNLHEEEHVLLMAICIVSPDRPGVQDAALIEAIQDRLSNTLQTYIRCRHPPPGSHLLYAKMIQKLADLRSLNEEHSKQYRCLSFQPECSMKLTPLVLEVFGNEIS", "assay": "Agonist activity at Vitamin D receptor in HEK293 cells assessed as receptor transactivation incubated for 48 hrs by dual-luciferase reporter assay", "type": "cell-based", "settings": "filed as agonist, dose 0.01-1 µM"}, "Mus musculus [12]": {"system": "Mus musculus", "assay": "Anti-fibrotic effect in CCl4-induced hepatic fibrosis C57BL/6 mouse model assessed as inhibition of collagen deposition at 500 ug/kg, po five times a week for 2 weeks by Masson's Trichrome […] staining based assay", "type": "functional, organism-based", "settings": "dose 500.0 µg/kg"}, "Mus musculus [13]": {"system": "Mus musculus", "assay": "Anti-fibrotic effect in CCl4-induced hepatic fibrosis C57BL/6 mouse model assessed as inhibition of serum total bile acid (TBA) level at 500 ug/kg, po five times a week for 2 weeks", "type": "functional, organism-based", "settings": "dose 500.0 µg/kg"}, "[14]": {"target": "T1, Vitamin D3 receptor (Homo sapiens)", "assay": "Agonist activity at Vitamin D receptor in human LX-2 cells assessed as transcriptional activity by measuring induction of CYP24A expression at 0.5 uM by RT-qPCR analysis relative to control", "type": "cell-based", "settings": "filed as agonist"}, "Mus musculus [15]": {"system": "Mus musculus", "assay": "Anti-fibrotic effect in CCl4-induced hepatic fibrosis C57BL/6 mouse model assessed as inhibition of proliferation of fibrous tissue at 500 ug/kg, po five times a week for 2 weeks by Masson's Trichrome […] staining based assay", "type": "functional, organism-based", "settings": "dose 500.0 µg/kg"}, "[16]": {"assay": "Cytotoxicity against human LX-2 cells by CCK-8 assay", "type": "toxicity, cell-based"}, "Mus musculus [17]": {"system": "Mus musculus", "assay": "Anti-fibrotic effect in CCl4-induced hepatic fibrosis C57BL/6 mouse model assessed as inhibition of collagen deposition at 500 ug/kg, po five times a week for 2 weeks by Hematoxylin-Eosin (H&E) staining based assay", "type": "functional, organism-based", "settings": "dose 500.0 µg/kg"}, "Mus musculus [18]": {"system": "Mus musculus", "assay": "Anti-fibrotic effect in CCl4-induced hepatic fibrosis C57BL/6 mouse model assessed as inhibition of serum ALT level at 500 ug/kg, po five times a week for 2 weeks", "type": "functional, organism-based", "settings": "dose 500.0 µg/kg"}, "[19]": {"target": "T1, Vitamin D3 receptor (Homo sapiens)", "assay": "Binding affinity to human full-length Vitamin D receptor assessed as relative binding affinity at 1 uM incubated for 2 hrs by fluorescence polarization based competitive binding assay relative to calcipotriol", "settings": "filed as agonist"}, "Mus musculus [20]": {"system": "Mus musculus", "assay": "Anti-fibrotic effect in CCl4-induced hepatic fibrosis C57BL/6 mouse model assessed as inhibition of proliferation of fibrous tissue at 500 ug/kg, po five times a week for 2 weeks by Hematoxylin-Eosin (H&E) staining based assay", "type": "functional, organism-based", "settings": "dose 500.0 µg/kg"}, "LX-2 [21]": {"system": "LX-2", "assay": "Inhibition of TGF-beta1 induced human LX-2 cell activation assessed as inhibition of collagen I expression at 0.5 uM by Western blot analysis relative to control", "type": "functional, cell-based"}, "Mus musculus [22]": {"system": "Mus musculus", "assay": "Anti-fibrotic effect in improving CCl4-induced hepatic fibrosis C57BL/6 mouse model assessed as decrease in liver to kidney brightness ratio at 500 ug/kg, po five times a week for 2 weeks by qualitative ultrasound imaging analysis", "type": "functional, organism-based", "settings": "dose 500.0 µg/kg"}},
  "note": "Activity calls are given as the source filed them. No cut-off for these calls is given here.",
  "data": [
    {"smiles": "C=C1/C(=C\\C=C2/CCC[C@]3(C)[C@@H]([C@H](C)/C=C/[C@@H](O)C4CC4)CC[C@@H]23)C[C@@H](O)C[C@@H]1O", "note": "[CALCIPOTRIENE]", "values": [
      {"measurement": "Activity", "setting": "[1]", "result": "Non-Toxic"}
    ]},
    {"smiles": "CCC(Oc1ccc(CO)c(CO)c1)c1cccc(OCCCC(O)(CC)CC)c1", "note": "(configuration not stated)", "values": [
      {"measurement": "Activity", "setting": "Mus musculus [2]", "result": "Active"},
      {"measurement": "inhibition", "setting": "LX-2 [3]", "result": "Active"},
      {"measurement": "Activity", "setting": "Mus musculus [4]", "result": "Active"},
      {"measurement": "Activity", "setting": "Mus musculus [5]", "result": "Active"},
      {"measurement": "Activity", "setting": "Mus musculus [6]", "result": "Active"},
      {"measurement": "Activity", "setting": "Mus musculus [7]", "result": "Active"},
      {"measurement": "Activity", "setting": "Mus musculus [8]", "result": "Active"},
      {"measurement": "Activity", "setting": "Mus musculus [9]", "result": "Active"},
      {"measurement": "Activity", "setting": "Mus musculus [10]", "result": "Active"},
      {"measurement": "Activity", "setting": "[11]", "result": "Dose-Dependent Effect"},
      {"measurement": "Activity", "setting": "Mus musculus [12]", "result": "Active"},
      {"measurement": "Activity", "setting": "Mus musculus [13]", "result": "Active"},
      {"measurement": "Activity", "setting": "[14]", "result": "Active"},
      {"measurement": "Activity", "setting": "Mus musculus [15]", "result": "Active"},
      {"measurement": "IC50", "setting": "[16]", "result": "> 30", "unit": "µM"},
      {"measurement": "Activity", "setting": "Mus musculus [17]", "result": "Active"},
      {"measurement": "Activity", "setting": "Mus musculus [18]", "result": "Active"},
      {"measurement": "RBA", "setting": "[19]", "result": 54.3, "unit": "%"},
      {"measurement": "Activity", "setting": "Mus musculus [20]", "result": "Active"},
      {"measurement": "inhibition", "setting": "LX-2 [21]", "result": "Active"},
      {"measurement": "Activity", "setting": "Mus musculus [22]", "result": "Active"}
    ]}
  ]
}
